Structures can show the parent of a compound that is named as a salt.

In this experiment the test system is 2-phenyl-1,4-benzoquinone-induced writhing. The experiment can be described thus: 2-phenyl-1,4-benzoquinone-induced writhing test in mice (Phenylquinone Writhing), analgesic activity. Type of experiment: in vivo. As to conditions: Mus musculus, sc, read-out: Inhibition of Writing ED50. The text has this: Compounds of Formula I of the present invention, namely, compounds of Formulas II, III and IV are useful as analgesic agents due to their ability to alleviate pain in mammals. […] Exptl. Biol. Med., 95, 729 (1957)].
On the technique in general: An intraperitoneal irritant provokes the stretching counted in writhing tests.
For `CN1CCC2(CC1)CN1c3ccccc3N=Cc3cccc2c31` [1,2-Dihydro-1'-methyl-spiro[indolo[1,7-ab][1,5]benzodiazepine-2,4'-piperidine]dihydrochloride], the 50% effective dose (ED50) is 12.1 mg/kg.

`CC1c2cccc3c2N(CC32CCN(C)CC2)c2ccccc2N1C(=O)CCN(C)C` (stereo not shown) [7-(N,N-dimethyl-3-aminopropionyl)-1',6-dimethyl-1,2,6,7-tetrahydro-spiro[indolo[1,7-ab][1,5]benzodiazepine-2,4'-piperidine]dihydrobromide]: the 50% effective dose (ED50) stood at 28.4 mg/kg.

For `CC1Nc2ccccc2N2CC3(CCN(C)CC3)c3cccc1c32` (stereo not shown) [1',6-Dimethyl-1,2,6,7-tetrahydro-spiro[indolo[1,7-ab][1,5]benzodiazepine-2,4'-piperidine]dihydrochloride], the ED50 was 9.7 mg/kg.

As to `CC1=Nc2ccccc2N2CC3(CCN(C)CC3)c3cccc1c32` [1,2-Dihydro-1',6-dimethyl-spiro[indolo[1,7-ab][1,5]benzodiazepine-2,4'-piperidine]dihydrochloride], the ED50 was 4.7 mg/kg.

As usually defined, the ED50 is the dose that gives a 50% effect, or the effect in half of the subjects.

Source of the values: patent US4472414A, “Spiro[indolo[1,7-ab][1,5]benzodiazepine-2,4'-piperidines]” (Hoechst-Roussel Pharmaceuticals Incorporated, priority 1983, dated 1984).
